Key:
Assay in all cases: relative viability (nuclei count vs DMSO), 5 days (fraction); higher = more cells survive
[1] = compound: CCn1c(-c2nonc2N)nc2cnc(Oc3cccc(NC(=O)c4ccc(OCCN5CCOCC5)cc4)c3)cc21 + Cc1nc(NC(=O)N2CCC[C@H]2C(N)=O)sc1-c1ccnc(C(C)(C)C(F)(F)F)c1 [Alpelisib] (partner 2 µM)
Procedure, shortened: (§1)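 For relative viability, nuclei counts in treated wells were divided by those in vehicle wells. Lung cancer cell lines had been pin-tool dosed in 1536-well plates the day after seeding and cultured for 5 days, then fixed and stained in one step (final 0.05% Triton X-100, 1% formaldehyde, 1 ug/ml Hoechst) and imaged at 4×. Doses were one drug alone or a fixed anchor-drug dose plus five library-drug doses (not always all listed) in √10 steps, and values are duplicate-plate medians.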

[2] = compound: CCn1c(-c2nonc2N)nc2cnc(Oc3cccc(NC(=O)c4ccc(OCCN5CCOCC5)cc4)c3)cc21 + O=C(CCCCCCC(=O)Nc1ccccc1)NO [Vorinostat] (partner 1 µM)
Procedure, shortened: as §1

Mirin + Tozasertib = compound: N=C1NC(=O)/C(=C/c2ccc(O)cc2)S1 [Mirin] + Cc1cc(Nc2cc(N3CCN(C)CC3)nc(Sc3ccc(NC(=O)C4CC4)cc3)n2)n[nH]1 [Tozasertib] (partner 0.1 µM)
Procedure, shortened: as §1

Mirin + Dasatinib = compound: N=C1NC(=O)/C(=C/c2ccc(O)cc2)S1 [Mirin] + Cc1nc(Nc2ncc(C(=O)Nc3c(C)cccc3Cl)s2)cc(N2CCN(CCO)CC2)n1 [Dasatinib] (partner 0.075 µM)
Procedure, shortened: as §1

Cell Line	relative viability ([1]; first compound 0.04 µM)	relative viability ([1]; first compound 0.1265 µM)	relative viability ([1]; first compound 0.4 µM)	relative viability ([1]; first compound 1.265 µM)	relative viability ([1]; first compound 4 µM)	relative viability ([2]; first compound 0.04 µM)	relative viability ([2]; first compound 0.1265 µM)	relative viability ([2]; first compound 0.4 µM)	relative viability ([2]; first compound 1.265 µM)	relative viability ([2]; first compound 4 µM)	relative viability (Mirin + Tozasertib; first compound 0.25 µM)	relative viability (Mirin + Tozasertib; first compound 0.7906 µM)	relative viability (Mirin + Tozasertib; first compound 2.5 µM)	relative viability (Mirin + Tozasertib; first compound 7.906 µM)	relative viability (Mirin + Tozasertib; first compound 25 µM)	relative viability (Mirin + Dasatinib; first compound 0.25 µM)	relative viability (Mirin + Dasatinib; first compound 0.7906 µM)	relative viability (Mirin + Dasatinib; first compound 2.5 µM)	relative viability (Mirin + Dasatinib; first compound 7.906 µM)	relative viability (Mirin + Dasatinib; first compound 25 µM)
LCLC-103H	1.2	0.935	0.961	1.11	1.03	0.921	0.8	0.55	0.537	0.512	0.417	0.554	0.481	0.461	0.336	0.44	0.469	0.491	0.348	0.422
HCC-15	1.03	0.831	0.953	0.867	0.845	0.938	0.785	0.81	0.767	0.718	0.336	0.344	0.359	0.202	0.177	0.608	0.655	0.599	0.632	0.404
H3255	1.08	0.622	0.622	0.583	0.594	0.92	0.743	0.686	0.618	0.568	0.677	0.639	0.698	0.555	0.602	0.383	0.315	0.347	0.275	0.381
NCI-H647	1.04	0.746	0.795	0.657	0.577	0.894	0.638	0.57	0.378	0.276	0.23	0.224	0.185	0.165	0.165	0.152	0.177	0.216	0.174	0.132
NCI-H2126	0.804	0.703	0.728	0.822	0.789	1.04	0.879	0.608	0.894	0.82	0.85	0.834	0.92	0.832	0.474	0.631	0.58	0.601	0.517	0.514
NCI-H727	0.745	0.833	0.751	0.84	0.713		1.23	1.05	0.961	1.36	0.705	0.629	0.661	0.543	0.553	0.345	0.285	0.337	0.4	0.256
EMC-BAC-2	0.872	0.732	0.8	0.729	0.75	0.438	0.297	0.159	0.147	0.167	0.274	0.28	0.284	0.228	0.162	0.328	0.324	0.349	0.271	0.249
NCI-H1355	0.863	0.951	0.818	0.814	0.863	0.653	0.668	0.413	0.377	0.313	0.526	0.637	0.533	0.394	0.272	0.766	0.724	0.691	0.564	0.648
NCI-H2347	1.12	1.06	0.906	0.511	0.588	0.654	0.656	0.488	0.348	0.427	0.58	0.457	0.681	0.587	0.439	0.336	0.316	0.344	0.287	0.273
NCI-H1651	1.09	1.06	0.883	0.964	0.653	0.604	0.639	0.467	0.292	0.497	0.667	0.788	0.622	0.489	0.587	0.417	0.382	0.501	0.355	0.376
NCI-H1975	0.548	0.439	0.401	0.221	0.202	0.666	0.623	0.554	0.37	0.273	0.697	0.84	0.799	0.664	0.585	0.437	0.482	0.384	0.417	0.354
COR-L23	0.681	0.647	0.446	0.154	0.159	0.508	0.309	0.225	0.13	0.113	0.162	0.213	0.17	0.15	0.132	0.55	0.563	0.534	0.553	0.524
LOU-NH91	0.759	0.619	0.652	0.55	0.566	1.06	0.824	0.661	0.529	0.548	0.661	0.614	0.673	0.465	0.42	0.549	0.564	0.535	0.477	0.65
NCI-H460	0.72	0.452	0.444	0.205	0.15	0.952	0.729	0.471	0.189	0.107	0.386	0.393	0.402	0.229	0.221	0.566	0.487	0.468	0.457	0.38
NCI-H650	1.31	0.893	0.745	0.434	0.492	0.503	0.28	0.24	0.192	0.224	0.684	0.557	0.707		0.51	0.455	0.391	0.397		0.506
NCI-H1915	1.03	1.09	1.03	1.08	1.04	0.507	0.52	0.472	0.244	0.225	0.44		0.413	0.35	0.289	0.308		0.332	0.342	0.31
NCI-H1734	0.802	0.708	0.513	0.571	0.402	0.937	0.838	0.586	0.412	0.399	0.262	0.285	0.272	0.228	0.223	0.484	0.436	0.469	0.45	0.438
NCI-H1993	0.758	0.77		0.719	0.668	0.991	0.764	0.649	0.697	0.697	0.611		0.605	0.52	0.576	0.518		0.678	0.455	0.556
LK-2	1.39	1.2	1.1	0.282	0.512	0.522	0.37	0.168	0.178	0.156	0.188		0.149	0.166	0.16	0.275		0.272	0.194	0.178
HCC-78	0.494	0.336	0.429	0.487	0.455	0.43	0.42		0.505	0.638	0.409	0.492	0.386	0.337	0.33	0.361	0.283	0.577	0.374	0.31
NCI-H3122	0.831	0.885	0.782	0.729	0.82	1.1	0.971	0.671	0.781	0.61	0.368	0.337	0.355	0.382	0.305	0.892	0.419	0.807	0.685	0.665
HOP-62	1.11	1.01	0.925	0.824	1.01	0.936	0.769	0.521	0.382	0.394	0.367	0.381	0.357	0.257	0.324	0.699	0.756	0.743	0.671	0.56
NCI-H661	0.823	0.724	0.435	0.287	0.451	0.891	0.906	0.888	0.627	0.517	0.351	0.367	0.344	0.337	0.327	0.985	0.737	0.884	0.734	0.697
NCI-H358	1.01	1.04	0.792	0.65	0.42	0.814	0.736	0.715	0.715	0.511	0.11	0.0924	0.114	0.0872	0.106	0.2	0.16	0.161	0.134	0.13
BEN	1.06	1.03	0.787	0.326	0.329	0.566	0.544	0.371	0.349	0.402	0.438	0.584	0.523	0.553	0.456	0.321	0.315	0.308	0.305	0.246
SK-MES-1	0.924	0.735	0.656		0.684	1.22	0.968	0.868	0.819	0.597	0.95	1.14	0.87	0.936	0.665	0.368	0.341	0.446	0.475	0.389
NCI-H1755	0.975	1.01	0.923	0.872	0.882	0.843	0.796	0.615	0.577	0.506	0.682	0.587	0.655	0.462	0.606	0.396	0.383	0.391	0.389	0.436

From the supplement of paper PMC10307832
